# Test results reported in patent publication US8912184B1, “Therapeutic and diagnostic methods” (Alzheimer's Institute of America, Inc., priority 2010, dated 2014).
# Where two headings read alike, the source gives them in different places.
# Test system: cancer cell lines
# Assay: Standard Cytotoxicity Assay for other cancer cell types (TC50, CellTiter-Glo)
# Assay type: cell-based
# Description: Approximately 24 hours later, test compound was added from serial dilutions prepared in DMSO from DMSO stock solutions.
smiles,measurement,setting,value
"O=C(NCc1cccnc1)Nc1ccc(COc2ccccc2-c2ccccc2)cc1 [Exemplary Compound A, 1-{4-[(biphenyl-2-yloxy)methyl]phenyl}-3-(pyridin-3-ylmethyl)urea]",CC50,"72 h, DB (lymphoma), 3 DAY, read-out: TC50 (the source's name)",3.5 nM
same,CC50,"72 h, DEL cells (lymphoma), 3 day, read-out: Cmpd A 3 day TC50",41 nM
same,CC50,"72 h, MC/CAR cells (myeloma), 3 day, read-out: Cmpd A 3 day TC50",8.2 nM
same,CC50,"72 h, NAMALWA cells (lymphoma), 3 day, read-out: Cmpd A 3 day TC50",0.85 nM
same,CC50,"Calu-6 cells (lung (NSCLC)), 3 day, read-out: Cmpd A 3 day TC50",12 nM
same,CC50,"DU145 cells (prostate), 3 day, read-out: Cmpd A 3 day TC50",3.8 nM
same,CC50,"Daudi cells (lymphoma), 3 day, read-out: Cmpd A 3 day TC50",< 0.8 nM
same,CC50,"Homo sapiens, 22Rv1, 72 h, 22RV1 cells (prostate), 3 day, read-out: Cmpd A 3 day TC50",8.4 nM
same,CC50,"Homo sapiens, A 172, 72 h, A172 (glioma), 3 DAY, read-out: TC50 (the source's name)",1.1 nM
same,CC50,"Homo sapiens, A498, 72 h, A498 cells (kidney), 3 day, read-out: Cmpd A 3 day TC50",43 nM
same,CC50,"Homo sapiens, A2058, 72 h, A2058 cells (melanoma (lymph node metastasis)), 3 day, read-out: Cmpd A 3 day TC50",3.4 nM
same,CC50,"Homo sapiens, ACHN, 72 h, ACHN cells (kidney), 3 day, read-out: Cmpd A 3 day TC50",3.7 nM
same,CC50,"Homo sapiens, BT-20, 72 h, BT-20 cells (breast), 3 day, read-out: Cmpd A 3 day TC50",13 nM
same,CC50,"Homo sapiens, BT-474, 168 h, BT-474 cells (breast), 7 day, read-out: Cmpd A 7 day TC50",1.1 nM
same,CC50,"Homo sapiens, BXPC-3, 72 h, BxPC-3 cells (pancreas), 3 day, read-out: Cmpd A 3 day TC50",11 nM
same,CC50,"Homo sapiens, CAMA-1, 72 h, CAMA-1 cells (breast), 3 day, read-out: Cmpd A 3 day TC50",4.6 nM
same,CC50,"Homo sapiens, CCRF-CEM, 72 h, CCRF-CEM cells (lymphocytic leukemia), 3 day, read-out: Cmpd A 3 day TC50",2 nM
same,CC50,"Homo sapiens, COLO 205, 72 h, COLO205 (colon), 3 DAY, read-out: TC50 (the source's name)",0.5 nM
same,CC50,"Homo sapiens, COLO 205, 168 h, COLO205 (colon), 7 DAY, read-out: TC50 (the source's name)",0.3 nM
same,CC50,"Homo sapiens, COLO 205, 168 h, COLO205 cells (colon), 7 day, read-out: Cmpd A 7 day TC50",0.3 nM
same,CC50,"Homo sapiens, Calu-6, 72 h, Calu-6 cells (lung (NSCLC)), 3 day, read-out: Cmpd A 3 day TC50",11 nM
same,CC50,"Homo sapiens, DBTRG-05MG, 72 h, DBTRG-05MG cells (brain; glioblastoma), 3 day, read-out: Cmpd A 3 day TC50",19 nM
same,CC50,"Homo sapiens, DLD-1, 72 h, DLD-1 cells (colon), 3 day, read-out: Cmpd A 3 day TC50",1.7 nM
same,CC50,"Homo sapiens, DMS-114, 72 h, DMS-114 (SCLC), 3 DAY, read-out: TC50 (the source's name)",0.16 nM
same,CC50,"Homo sapiens, DU-145, 72 h, DU145 (prostate), 3 DAY, read-out: TC50 (the source's name)",3.9 nM
same,CC50,"Homo sapiens, DU-145, 72 h, DU145 cells (prostate), 3 day, read-out: Cmpd A 3 day TC50",3.9 nM
same,CC50,"Homo sapiens, DU-145, 168 h, DU145 (prostate), 7 DAY, read-out: TC50 (the source's name)",2.7 nM
same,CC50,"Homo sapiens, DU-145, 168 h, DU145 cells (prostate), 7 day, read-out: Cmpd A 7 day TC50",3 nM
same,CC50,"Homo sapiens, DU-4475, 72 h, DU4475 (breast), 3 DAY, read-out: TC50 (the source's name)",0.1 nM
same,CC50,"Homo sapiens, DU-4475, 72 h, DU4475 cells (breast), 3 day, read-out: Cmpd A 3 day TC50",0.1 nM
same,CC50,"Homo sapiens, DU-4475, 168 h, DU4475 (breast), 7 DAY, read-out: TC50 (the source's name)",0.1 nM
same,CC50,"Homo sapiens, DU-4475, 168 h, DU4475 cells (breast), 7 day, read-out: Cmpd A 7 day TC50",0.1 nM
same,CC50,"Homo sapiens, Daudi, 72 h, Daudi cells (lymphoma), 3 day, read-out: Cmpd A 3 day TC50",1.4 nM
same,CC50,"Homo sapiens, EKVX, 72 h, EKVX cells (lung (NSCLC)), 3 day, read-out: Cmpd A 3 day TC50",4 nM
same,CC50,"Homo sapiens, EKVX, 168 h, EKVX cells (lung (NSCLC)), 7 day, read-out: Cmpd A 7 day TC50",1 nM
same,CC50,"Homo sapiens, H9, 72 h, H9 cells (lymphoma), 3 day, read-out: Cmpd A 3 day TC50",3.2 nM
same,CC50,"Homo sapiens, HCC827, 72 h, HCC827 (NSCLC), 3 DAY, read-out: TC50 (the source's name)",8 nM
same,CC50,"Homo sapiens, HCC827, 72 h, HCC827 cells (lung (NSCLC)), 3 day, read-out: Cmpd A 3 day TC50",8 nM
same,CC50,"Homo sapiens, HCC827, 168 h, HCC827 (NSCLC), 7 DAY, read-out: TC50 (the source's name)",1.5 nM
same,CC50,"Homo sapiens, HCC827, 168 h, HCC827 cells (lung (NSCLC)), 7 day, read-out: Cmpd A 7 day TC50",1.5 nM
same,CC50,"Homo sapiens, HCC1937, 72 h, HCC1937 cells (breast), 3 day, read-out: Cmpd A 3 day TC50",61 nM
same,CC50,"Homo sapiens, HCC1937, 168 h, HCC1937 cells (breast), 7 day, read-out: Cmpd A 7 day TC50",1.5 nM
same,CC50,"Homo sapiens, HCT-15, 72 h, HCT-15 (colon), 3 DAY, read-out: TC50 (the source's name)",0.7 nM
same,CC50,"Homo sapiens, HCT-15, 168 h, HCT-15 (colon), 7 DAY, read-out: TC50 (the source's name)",1 nM
same,CC50,"Homo sapiens, HCT-15, 168 h, HCT-15 cells (colon), 7 day, read-out: Cmpd A 7 day TC50",1 nM
same,CC50,"Homo sapiens, HCT-116, 72 h, HCT116 (colon), 3 DAY, read-out: TC50 (the source's name)",0.6 nM
same,CC50,"Homo sapiens, HCT-116, 72 h, HCT-116 cells (colon), 3 day, read-out: Cmpd A 3 day TC50",0.2 to 4.4 nM
same,CC50,"Homo sapiens, HCT-116, 168 h, HCT116 (colon), 7 DAY, read-out: TC50 (the source's name)",0.4 nM
same,CC50,"Homo sapiens, HCT-116, 168 h, HCT-116 cells (colon), 7 day, read-out: Cmpd A 7 day TC50",0.4 nM
same,CC50,"Homo sapiens, HL-60, 72 h, HL-60 cells (myelogenous leukemia), 3 day, read-out: Cmpd A 3 day TC50",5.3 nM
same,CC50,"Homo sapiens, HOP-62, 72 h, HOP62 cells (lung (NSCLC)), 3 day, read-out: Cmpd A 3 day TC50",4 nM
same,CC50,"Homo sapiens, HOP-92, 72 h, HOP92 (NSCLC), 3 DAY, read-out: TC50 (the source's name)",17 nM
same,CC50,"Homo sapiens, HOP-92, 72 h, HOP92 cells (lung (NSCLC)), 3 day, read-out: Cmpd A 3 day TC50",17 nM
same,CC50,"Homo sapiens, HOP-92, 168 h, HOP92 (NSCLC), 7 DAY, read-out: TC50 (the source's name)",4.3 nM
same,CC50,"Homo sapiens, HOP-92, 168 h, HOP92 cells (lung (NSCLC)), 7 day, read-out: Cmpd A 7 day TC50",4.3 nM
same,CC50,"Homo sapiens, HOS, 72 h, HOS cells (osteosarcoma), 3 day, read-out: Cmpd A 3 day TC50",< 0.8 nM
same,CC50,"Homo sapiens, HT-29, 72 h, HT29 (colon), 3 DAY, read-out: TC50 (the source's name)",1.4 nM
same,CC50,"Homo sapiens, HT-29, 72 h, HT29 cells (colon), 3 day, read-out: Cmpd A 3 day TC50",1.4 nM
same,CC50,"Homo sapiens, HT-29, 168 h, HT29 (colon), 7 DAY, read-out: TC50 (the source's name)",1.1 nM
same,CC50,"Homo sapiens, HT-29, 168 h, HT29 cells (colon), 7 day, read-out: Cmpd A 7 day TC50",1.1 nM
same,CC50,"Homo sapiens, HT-1080, 72 h, HT1080 (sarcoma), 3 DAY, read-out: TC50 (the source's name)",1 nM
same,CC50,"Homo sapiens, HT-1080, 72 h, HT1080 cells (fibrosarcoma), 3 day, read-out: Cmpd A 3 day TC50",1 nM
same,CC50,"Homo sapiens, HT-1080, 168 h, HT1080 (sarcoma), 7 DAY, read-out: TC50 (the source's name)",0.6 nM
same,CC50,"Homo sapiens, HT-1080, 168 h, HT1080 cells (fibrosarcoma), 7 day, read-out: Cmpd A 7 day TC50",0.6 nM
same,CC50,"Homo sapiens, IGROV-1, 72 h, IGR-OV1 cells (ovary), 3 day, read-out: Cmpd A 3 day TC50",2 nM
same,CC50,"Homo sapiens, JJN-3, 72 h, JJN3 cells (myeloma (plasma cell leukemia)), 3 day, read-out: Cmpd A 3 day TC50",0.9 nM
same,CC50,"Homo sapiens, K562, 72 h, K562 cells (myelogenous leukemia), 3 day, read-out: Cmpd A 3 day TC50",5.7 nM
same,CC50,"Homo sapiens, KARPAS-299, 72 h, KARPAS-299 cells (lymphocytic leukemia), 3 day, read-out: Cmpd A 3 day TC50",20 nM
same,CC50,"Homo sapiens, KINGS-1, 72 h, KINGS-1 cells (brain, anaplastic astrocytoma (glioma)), 3 day, read-out: Cmpd A 3 day TC50",2 nM
same,CC50,"Homo sapiens, KM12, 72 h, KM12 (colon), 3 DAY, read-out: TC50 (the source's name)",0.9 nM
same,CC50,"Homo sapiens, KM12, 72 h, KM12 cells (colon), 3 day, read-out: Cmpd A 3 day TC50",0.9 nM
same,CC50,"Homo sapiens, KM12, 168 h, KM12 (colon), 7 DAY, read-out: TC50 (the source's name)",0.4 nM
same,CC50,"Homo sapiens, KM12, 168 h, KM12 cells (colon), 7 day, read-out: Cmpd A 7 day TC50",0.4 nM
same,CC50,"Homo sapiens, LOX IMVI, 72 h, LOX-IMVI cells (melanoma), 3 day, read-out: Cmpd A 3 day TC50",15 nM
same,CC50,"Homo sapiens, MCF7, 72 h, MCF7 cells (breast), 3 day, read-out: Cmpd A 3 day TC50",2.2 nM
same,CC50,"Homo sapiens, MDA-MB-231, 72 h, MDA-MB-231 (breast), 3 DAY, read-out: TC50 (the source's name)",10 nM
same,CC50,"Homo sapiens, MDA-MB-231, 168 h, MDA-MB-231 (breast), 7 DAY, read-out: TC50 (the source's name)",7.5 nM
same,CC50,"Homo sapiens, MDA-MB-231, 168 h, MDA-MB-231 cells (breast), 7 day, read-out: Cmpd A 7 day TC50",8 nM
same,CC50,"Homo sapiens, MDA-MB-436, 72 h, MDA-MB-436 cells (breast), 3 day, read-out: Cmpd A 3 day TC50",17 nM
same,CC50,"Homo sapiens, MIA PaCa-2, 72 h, MIA PaCa-2 (pancreatic), 3 DAY, read-out: TC50 (the source's name)",1.8 nM
same,CC50,"Homo sapiens, MIA PaCa-2, 72 h, MiaPaCa2 cells (pancreas), 3 day, read-out: Cmpd A 3 day TC50",1.8 nM
same,CC50,"Homo sapiens, MIA PaCa-2, 168 h, MIA PaCa-2 (pancreatic), 7 DAY, read-out: TC50 (the source's name)",0.4 nM
same,CC50,"Homo sapiens, MIA PaCa-2, 168 h, MiaPaCa2 cells (pancreas), 7 day, read-out: Cmpd A 7 day TC50",0.4 nM
same,CC50,"Homo sapiens, MM1.S, 72 h, MM.1S cells (myeloma), 3 day, read-out: Cmpd A 3 day TC50",1.2 nM
same,CC50,"Homo sapiens, Malme-3M, 72 h, MALME-3M cells (melanoma (lung metastasis)), 3 day, read-out: Cmpd A 3 day TC50",2.5 nM
